The test system of one experiment is DLD-1. Put plainly: cells. The class given is cell-based.
A further experiment relates to RKO. Nature of the experiment: cells. The class given is cell-based.
Another experiment deals with Colo320. Nature of the experiment: cells. The class given is cell-based.
Experiment [1] concerns ECFC/ADSC co-culture cell nuclei number.
Experiment [2] deals with HCT116 cells treated with a GSK3β inhibitor. Put plainly: cells. The conditions noted are these: for IC50/EC50, GSK3b inh pretreated_Viability ATP HCT116 (assay number 26): GSK3b inh pretreated. In kind it is cell-based.
Another experiment deals with HCT116. Nature of the experiment: cells. The class given is cell-based.
Another experiment concerns SW480. Nature of the experiment: cells. In kind it is cell-based.
For another experiment, the system named is SNU-C1. Nature of the experiment: cells. The class given is cell-based.
In a further experiment the test system is HT-29. Put plainly: cells. The class given is cell-based.
For experiment [3], the system named is endothelial tube formation in co-cultures of ECFCs and ADSCs treated with VEGF. Put plainly: cells. The class given is cell-based, human.
Where [4] appears, read: assay number 26, GSK3b inhibitor pretreated.

Like-named read-outs stand apart in the source and are kept apart here. Bounds are passed on as bounds.

Regarding `CC(C)=CCC/C(C)=C/CC/C(C)=C/CC/C=C(\C)CC/C=C(\C)CCC=C(C)C` [NCGC00181323-02], the IC50 is greater than 20 µM with DLD-1 (assay number 23, basal, read-out: Basal_Viability ATP DLD-1 summarized IC50); greater than 20 µM with RKO (assay number 29, basal, read-out: Basal_Viability ATP RKO summarized IC50); greater than 20 µM in the experiment on Colo320 (assay number 27, basal, read-out: Basal_Viability ATP Colo 320 summarized IC50); greater than 10 µM in experiment [1] (read-out: VEGF_ADSC\ECFC Angio Hoechst NucArea summarized IC50); greater than 20 µM in experiment [2] (assay number 26, GSK3b inhibitor pretreated, read-out: GSK3b inh pretreated_Viability ATP HCT116 summarized IC50); greater than 20 µM in the experiment on HCT116 (assay number 25, basal, read-out: Basal_Viability ATP HCT116 summarized IC50). Besides, the 50% inhibitory concentration (IC50) with SW480 (assay number 24, basal, read-out: Basal_Viability ATP SW480 summarized IC50) is greater than 20 µM; with SNU-C1 (assay number 30, basal, read-out: Basal_Viability ATP SNU-C1 summarized IC50), greater than 20 µM; in the experiment with HT-29 (assay number 28, basal, read-out: Basal_Viability ATP HT-29 summarized IC50) it was greater than 20 µM; in experiment [3] (read-out: VEGF_ADSC\ECFC Angio CD31 TubeArea summarized IC50), greater than 10 µM.
With `CCOC(=O)[C@H](CCc1ccccc1)N[C@@H](C)C(=O)N1C(=O)N(C)C[C@H]1C(=O)O.Cl` [NCGC00181342-02], in the experiment on DLD-1 (assay number 23, basal), the “Basal_Viability ATP DLD-1 IC50/EC50” value was greater than 20 µM. The “Basal_Viability ATP RKO IC50/EC50” value in the experiment with RKO (assay number 29, basal) is reported as greater than 20 µM. Besides, in the experiment with Colo320 (assay number 27, basal), the “Basal_Viability ATP Colo 320 IC50/EC50” value is reported as greater than 20 µM. The “VEGF_ADSC\ECFC Angio Hoechst NucArea IC50/EC50” value in experiment [1] is greater than 10 µM. For the same compound, the “GSK3b inh pretreated_Viability ATP HCT116 IC50/EC50” value in experiment [2] (setting [4]) is recorded as greater than 20 µM. Moreover, the “Basal_Viability ATP HCT116 IC50/EC50” value in the experiment with HCT116 (assay number 25, basal) is recorded as greater than 20 µM. The “Basal_Viability ATP SW480 IC50/EC50” value with SW480 (assay number 24, basal) is on record as greater than 20 µM. The “Basal_Viability ATP SNU-C1 IC50/EC50” value with SNU-C1 (assay number 30, basal) is on record as greater than 20 µM. In the experiment with HT-29 (assay number 28, basal), the “Basal_Viability ATP HT-29 IC50/EC50” value was greater than 20 µM. Besides, in experiment [3], the “VEGF_ADSC\ECFC Angio CD31 TubeArea IC50/EC50” value was greater than 10 µM.
As for `Cc1cc2nc3ccc(=[N+](C)C)cc-3sc2cc1N.[Cl-]` [NCGC00181775-02], the “Basal_Viability ATP DLD-1 IC50/EC50” value with DLD-1 came to 9.38 µM. Besides, the “Basal_Viability ATP RKO IC50/EC50” value in the experiment on RKO turned out to be 0.9955 µM. In addition, the “Basal_Viability ATP Colo 320 IC50/EC50” value in the experiment on Colo320 amounted to 0.9874 µM. Besides, the “VEGF_ADSC\ECFC Angio Hoechst NucArea IC50/EC50” value in [1] was 8.146 µM. Further, the “GSK3b inh pretreated_Viability ATP HCT116 IC50/EC50” value in experiment [2] is 1.693 µM. For the same compound, in the experiment on HCT116, the “Basal_Viability ATP HCT116 IC50/EC50” value came out at 2.782 µM. In addition, in the experiment on SW480, the “Basal_Viability ATP SW480 IC50/EC50” value is listed as 1.397 µM. Also, the “Basal_Viability ATP SNU-C1 IC50/EC50” value in the experiment with SNU-C1 was 5.5567 µM. The “Basal_Viability ATP HT-29 IC50/EC50” value in the experiment with HT-29 was 5.063 µM. Besides, the “VEGF_ADSC\ECFC Angio CD31 TubeArea IC50/EC50” value in experiment [3] is listed as 2.45 µM.
In the case of `O=C1NCCN1CCN1CCC(c2cn(-c3ccc(F)cc3)c3ccc(Cl)cc23)CC1` [NCGC00181782-03], the “IC50/EC50, Basal_Viability ATP DLD-1 (assay number 23)” value in the experiment on DLD-1 (basal) is on record as 5.6233 µM. In the experiment on RKO (basal), the “IC50/EC50, Basal_Viability ATP RKO (assay number 29)” value amounted to 2.6022 µM. For the same compound, in the experiment with Colo320 (basal), the “IC50/EC50, Basal_Viability ATP Colo 320 (assay number 27)” value turned out to be 3.6991 µM. The “IC50/EC50, VEGF_ADSC\ECFC Angio Hoechst NucArea (assay number 3)” value in experiment [1] was greater than 10 µM. Besides, in experiment [2], the “IC50/EC50, GSK3b inh pretreated_Viability ATP HCT116 (assay number 26)” value was found to be 3.5177 µM. Further, in the experiment on HCT116 (basal), the “IC50/EC50, Basal_Viability ATP HCT116 (assay number 25)” value worked out at 2.1598 µM. The “IC50/EC50, Basal_Viability ATP SW480 (assay number 24)” value in the experiment with SW480 (basal) is on record as 2.8086 µM. In the experiment on SNU-C1 (basal), the “IC50/EC50, Basal_Viability ATP SNU-C1 (assay number 30)” value is 1.4252 µM. Moreover, the “IC50/EC50, Basal_Viability ATP HT-29 (assay number 28)” value in the experiment on HT-29 (basal) is 2.8613 µM. Also, the “IC50/EC50, VEGF_ADSC\ECFC Angio CD31 TubeArea (assay number 2)” value in [3] is greater than 10 µM.
Take `CNS(=O)(=O)CCc1ccc2[nH]cc(C3CCN(C)CC3)c2c1.Cl` [NCGC00181786-02]: the “IC50/EC50, Basal_Viability ATP DLD-1 (assay number 23)” value in the experiment with DLD-1 (basal) is greater than 20 µM. Further, the “IC50/EC50, Basal_Viability ATP RKO (assay number 29)” value with RKO (basal) is recorded as greater than 20 µM. In addition, the “IC50/EC50, Basal_Viability ATP Colo 320 (assay number 27)” value with Colo320 (basal) is greater than 20 µM. Moreover, the “IC50/EC50, VEGF_ADSC\ECFC Angio Hoechst NucArea (assay number 3)” value in experiment [1] is greater than 10 µM. Besides, the “IC50/EC50, GSK3b inh pretreated_Viability ATP HCT116 (assay number 26)” value in experiment [2] stood at 12.1308 µM. For the same compound, in the experiment on HCT116 (basal), the “IC50/EC50, Basal_Viability ATP HCT116 (assay number 25)” value is reported as greater than 20 µM. For the same compound, in the experiment on SW480 (basal), the “IC50/EC50, Basal_Viability ATP SW480 (assay number 24)” value is greater than 20 µM. In the experiment on SNU-C1 (basal), the “IC50/EC50, Basal_Viability ATP SNU-C1 (assay number 30)” value is greater than 20 µM. Besides, in the experiment with HT-29 (basal), the “IC50/EC50, Basal_Viability ATP HT-29 (assay number 28)” value was greater than 20 µM. Also, the “IC50/EC50, VEGF_ADSC\ECFC Angio CD31 TubeArea (assay number 2)” value in [3] is on record as greater than 10 µM.
Regarding `CCCCCCCC[N+](C)(C)CCCCCCCC` [NCGC00182056-04], the “Basal_Viability ATP DLD-1 IC50/EC50” value in the experiment on DLD-1 (assay number 23, basal) is 3.2197 µM. For the same compound, the “Basal_Viability ATP RKO IC50/EC50” value in the experiment on RKO (assay number 29, basal) is 2.183 µM. Besides, the “Basal_Viability ATP Colo 320 IC50/EC50” value with Colo320 (assay number 27, basal) was 4.6621 µM. In [1], the “VEGF_ADSC\ECFC Angio Hoechst NucArea IC50/EC50” value is 7.431 µM. In addition, in experiment [2] (setting [4]), the “GSK3b inh pretreated_Viability ATP HCT116 IC50/EC50” value is 3.6902 µM. In the experiment with HCT116 (assay number 25, basal), the “Basal_Viability ATP HCT116 IC50/EC50” value is listed as 6.2411 µM. Also, the “Basal_Viability ATP SW480 IC50/EC50” value in the experiment on SW480 (assay number 24, basal) stood at 3.4577 µM. The “Basal_Viability ATP SNU-C1 IC50/EC50” value in the experiment on SNU-C1 (assay number 30, basal) came to 1.4417 µM. In the experiment with HT-29 (assay number 28, basal), the “Basal_Viability ATP HT-29 IC50/EC50” value is reported as 3.9986 µM. In experiment [3], the “VEGF_ADSC\ECFC Angio CD31 TubeArea IC50/EC50” value was determined as 1.3911 µM.

By IC50 is commonly meant the concentration needed to halve the response being measured.

The values above are taken from paper PMC4503722, “Novel Phenotypic Outcomes Identified for a Public Collection of Approved Drugs from a Publicly Accessible Panel of Assays” (PLoS ONE, 2015).
